One compound from PMC4412158 (Nature chemical biology, 2014) can be followed below.

For this assay, the target named is T1, phosphoglycerate kinase 1 (hPGK1) (Homo sapiens, UniProt P00558).
T1 sequence (P00558 2-417): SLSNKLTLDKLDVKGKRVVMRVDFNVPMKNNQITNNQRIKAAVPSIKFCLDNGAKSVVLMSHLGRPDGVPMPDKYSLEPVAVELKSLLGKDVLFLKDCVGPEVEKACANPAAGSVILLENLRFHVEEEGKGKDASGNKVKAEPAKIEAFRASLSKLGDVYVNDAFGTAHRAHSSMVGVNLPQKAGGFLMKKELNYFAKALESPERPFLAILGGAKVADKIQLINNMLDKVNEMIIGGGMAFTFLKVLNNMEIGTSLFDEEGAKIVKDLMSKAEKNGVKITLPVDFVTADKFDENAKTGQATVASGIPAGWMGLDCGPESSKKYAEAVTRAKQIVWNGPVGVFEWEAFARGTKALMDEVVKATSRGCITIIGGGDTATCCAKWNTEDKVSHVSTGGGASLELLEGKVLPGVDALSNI
The assay can be described thus: co-crystal structure hPGK1-3PG-TZ at […] Å. Type of assay: binding.

As for `COc1cc2nc(N3CCN(C(=O)C4CCCO4)CC3)nc(N)c2cc1OC` (racemic) [TZ, terazosin], the “co-crystal structure hPGK1-3PG-TZ at 2.1 Å” value was “we obtained the ternary co-crystallization complexes for both the mouse and the human Pgk1-3PG-TZ”.
